The experiment relates to A/Mississippi/3/2001 H275Y mutant (H1N1). The class given is cell-based, influenza A virus.

As for `CCOC(=O)C1=C[C@@H](OC(CC)CC)[C@H](NC(C)=O)[C@@H](N)C1` [oseltamivir], the reduction of virus came out at 43%.

Source of the values: US20190298669A1 (priority 2018, published 2019).
